Measured values from ChEMBL document CHEMBL3885861, “Open TG-GATES”.

Species: Rattus norvegicus
Test: Open TG-GATES - Regimen: Daily Repeat
Assay type: toxicity, organism-based, Sprague-Dawley
Parameters: regimen Daily Repeat, gender Male, age 6 weeks
Settings: in vivo, po, 30 mg/kg, route gavage, dose level High; for APTT / Bas / Eos / Fbg / Hb / Ht / Lym / MCH / MCHC / MCV / Mono / Neu / PT / Plat / RBC / Ret / WBC: tissue Blood; for KIDNEY_L / KIDNEY_R / KIDNEY_TOTAL: tissue Kidney; for LIVER: tissue Liver; for A/G / ALP / ALT / AST / BUN / CRE / Ca / Cl / DBIL / GLC / IP / K / LDH / Na / PL / RALB / TBIL / TC / TG / TP / gamma-GTP: tissue Plasma

Cn1cnc([N+](=O)[O-])c1Sc1ncnc2nc[nH]c12 [AZATHIOPRINE] was tested, and the TERMINAL_BW (72 h, time 3 day) was 201.9 g, the APTT (72 h, time 3 day) was 19.5 s and the Bas (72 h, time 3 day) was 0%. For the same compound, the Eos (72 h, time 3 day) was 0.8%, the Fbg (72 h, time 3 day) was 327.6 mg/dL and the Hb (72 h, time 3 day) was 12.7 g/dL. The Ht (72 h, time 3 day) was 37.9%, the Lym (72 h, time 3 day) was 86% and the MCH (72 h, time 3 day) was 21.7 pg. It also gave an MCHC (72 h, time 3 day) of 33.5%, an MCV (72 h, time 3 day) of 64.7 fL and a Mono (72 h, time 3 day) of 2.2%. The Neu (72 h, time 3 day) was 9.4%, the PT (72 h, time 3 day) was 15.3 s and the Plat (72 h, time 3 day) was 140.5 x10_4/uL. The RBC (72 h, time 3 day) was 585.2 x10_4/ul, the Ret (72 h, time 3 day) was 2.3% and the WBC (72 h, time 3 day) was 55.5 x10_2/uL. It also gave a KIDNEY_L (72 h, time 3 day) of 0.9 g, a KIDNEY_R (72 h, time 3 day) of 0.9 g and a KIDNEY_TOTAL (72 h, time 3 day) of 1.8 g. The LIVER (72 h, time 3 day) was 9.7 g, the A/G (72 h, time 3 day) was 1.2 and the ALP (72 h, time 3 day) was 1508.2 IU/L. It also gave an ALT (72 h, time 3 day) of 33 IU/L, an AST (72 h, time 3 day) of 68.2 IU/L and a BUN (72 h, time 3 day) of 17.2 mg/dL. For the same compound, the CRE (72 h, time 3 day) was 0.1 mg/dL, the Ca (72 h, time 3 day) was 11.3 mg/dL and the Cl (72 h, time 3 day) was 106 meq/L. For the same compound, the DBIL (72 h, time 3 day) was 0 mg/dL, the GLC (72 h, time 3 day) was 185 mg/dL and the IP (72 h, time 3 day) was 6.8 mg/dL. It also gave a K (72 h, time 3 day) of 4.4 meq/L, an LDH (72 h, time 3 day) of 199.8 IU/L and a Na (72 h, time 3 day) of 143 meq/L. The PL (72 h, time 3 day) was 160.4 mg/dL, the RALB (72 h, time 3 day) was 3.3 g/dL and the TBIL (72 h, time 3 day) was 0.008 mg/dL. The TC (72 h, time 3 day) was 91.8 mg/dL, the TG (72 h, time 3 day) was 77 mg/dL and the TP (72 h, time 3 day) was 6 g/dL. It also gave a gamma-GTP (72 h, time 3 day) of 1.4 IU/L, a TERMINAL_BW ([…], time 7 day) of 220 g and a TERMINAL_BW ([…], time 14 day) of 226 g. For the same compound, the TERMINAL_BW ([…], time 28 day) was 300.4 g, the APTT ([…], time 7 day) was 21.5 s and the Bas ([…], time 7 day) was 0%. The Eos ([…], time 7 day) was 1%, the Fbg ([…], time 7 day) was 314.4 mg/dL and the Hb ([…], time 7 day) was 12.4 g/dL. It also gave a Ht ([…], time 7 day) of 36%, a Lym ([…], time 7 day) of 84.6% and an MCH ([…], time 7 day) of 22.1 pg. It also gave an MCHC ([…], time 7 day) of 34.5%, an MCV ([…], time 7 day) of 64.2 fL and a Mono ([…], time 7 day) of 1.8%. It also gave a Neu ([…], time 7 day) of 11.6%, a PT ([…], time 7 day) of 15.1 s and a Plat ([…], time 7 day) of 192.2 x10_4/uL. The RBC ([…], time 7 day) was 561.4 x10_4/ul, the Ret ([…], time 7 day) was 4.1% and the WBC ([…], time 7 day) was 73.3 x10_2/uL. For the same compound, the APTT ([…], time 14 day) was 28.3 s, the Bas ([…], time 14 day) was 0% and the Eos ([…], time 14 day) was 0.2%. It also gave a Fbg ([…], time 14 day) of 458.2 mg/dL, a Hb ([…], time 14 day) of 12.5 g/dL and a Ht ([…], time 14 day) of 35%. It also gave a Lym ([…], time 14 day) of 85.8%, an MCH ([…], time 14 day) of 21.8 pg and an MCHC ([…], time 14 day) of 35.6%. For the same compound, the MCV ([…], time 14 day) was 61.2 fL, the Mono ([…], time 14 day) was 2% and the Neu ([…], time 14 day) was 10.6%. The PT ([…], time 14 day) was 18.9 s, the Plat ([…], time 14 day) was 86.4 x10_4/uL and the RBC ([…], time 14 day) was 571.6 x10_4/ul. The Ret ([…], time 14 day) was 3%, the WBC ([…], time 14 day) was 49.6 x10_2/uL and the APTT ([…], time 28 day) was 24.3 s. It also gave a Bas ([…], time 28 day) of 0%, an Eos ([…], time 28 day) of 1% and a Fbg ([…], time 28 day) of 339.5 mg/dL. The Hb ([…], time 28 day) was 12.4 g/dL, the Ht ([…], time 28 day) was 35.6% and the Lym ([…], time 28 day) was 87%. For the same compound, the MCH ([…], time 28 day) was 21.5 pg, the MCHC ([…], time 28 day) was 34.9% and the MCV ([…], time 28 day) was 61.6 fL. The Mono ([…], time 28 day) was 1%, the Neu ([…], time 28 day) was 10.5% and the PT ([…], time 28 day) was 16.4 s. For the same compound, the Plat ([…], time 28 day) was 135.4 x10_4/uL, the RBC ([…], time 28 day) was 577.5 x10_4/ul and the Ret ([…], time 28 day) was 5.3%. It also gave a WBC ([…], time 28 day) of 35.2 x10_2/uL, a KIDNEY_L ([…], time 7 day) of 1 g and a KIDNEY_R ([…], time 7 day) of 1 g. The KIDNEY_TOTAL ([…], time 7 day) was 2 g, the KIDNEY_L ([…], time 14 day) was 1.1 g and the KIDNEY_R ([…], time 14 day) was 1.1 g. It also gave a KIDNEY_TOTAL ([…], time 14 day) of 2.1 g, a KIDNEY_L ([…], time 28 day) of 1.1 g and a KIDNEY_R ([…], time 28 day) of 1.2 g. For the same compound, the KIDNEY_TOTAL ([…], time 28 day) was 2.3 g, the LIVER ([…], time 7 day) was 10.9 g and the LIVER ([…], time 14 day) was 11.5 g. For the same compound, the LIVER ([…], time 28 day) was 12.9 g, the A/G ([…], time 7 day) was 1.1 and the ALP ([…], time 7 day) was 1412.8 IU/L. For the same compound, the ALT ([…], time 7 day) was 29.6 IU/L, the AST ([…], time 7 day) was 75.2 IU/L and the BUN ([…], time 7 day) was 17.8 mg/dL. For the same compound, the CRE ([…], time 7 day) was 0.1 mg/dL, the Ca ([…], time 7 day) was 11.3 mg/dL and the Cl ([…], time 7 day) was 105.2 meq/L. It also gave a DBIL ([…], time 7 day) of 0 mg/dL, a GLC ([…], time 7 day) of 191.2 mg/dL and an IP ([…], time 7 day) of 6.6 mg/dL. The K ([…], time 7 day) was 4.1 meq/L, the LDH ([…], time 7 day) was 255.6 IU/L and the Na ([…], time 7 day) was 142.6 meq/L. The PL ([…], time 7 day) was 179.8 mg/dL, the RALB ([…], time 7 day) was 3.3 g/dL and the TBIL ([…], time 7 day) was 0.01 mg/dL. It also gave a TC ([…], time 7 day) of 98.2 mg/dL, a TG ([…], time 7 day) of 56.4 mg/dL and a TP ([…], time 7 day) of 6.2 g/dL. It also gave a gamma-GTP ([…], time 7 day) of 1 IU/L, an A/G ([…], time 14 day) of 0.9 and an ALP ([…], time 14 day) of 976.6 IU/L. It also gave an ALT ([…], time 14 day) of 135 IU/L, an AST ([…], time 14 day) of 523.6 IU/L and a BUN ([…], time 14 day) of 31.6 mg/dL. The CRE ([…], time 14 day) was 0.2 mg/dL, the Ca ([…], time 14 day) was 11.2 mg/dL and the Cl ([…], time 14 day) was 106.8 meq/L. It also gave a DBIL ([…], time 14 day) of 0.036 mg/dL, a GLC ([…], time 14 day) of 168.8 mg/dL and an IP ([…], time 14 day) of 8.4 mg/dL. It also gave a K ([…], time 14 day) of 4.8 meq/L, an LDH ([…], time 14 day) of 1529.2 IU/L and a Na ([…], time 14 day) of 142.6 meq/L. For the same compound, the PL ([…], time 14 day) was 149.6 mg/dL, the RALB ([…], time 14 day) was 3 g/dL and the TBIL ([…], time 14 day) was 0.074 mg/dL. For the same compound, the TC ([…], time 14 day) was 94.8 mg/dL, the TG ([…], time 14 day) was 35.8 mg/dL and the TP ([…], time 14 day) was 6.5 g/dL. The gamma-GTP ([…], time 14 day) was 1.4 IU/L, the A/G ([…], time 28 day) was 1.1 and the ALP ([…], time 28 day) was 982 IU/L. For the same compound, the ALT ([…], time 28 day) was 32 IU/L, the AST ([…], time 28 day) was 71.5 IU/L and the BUN ([…], time 28 day) was 19 mg/dL. The CRE ([…], time 28 day) was 0.2 mg/dL, the Ca ([…], time 28 day) was 10.8 mg/dL and the Cl ([…], time 28 day) was 106.5 meq/L. It also gave a DBIL ([…], time 28 day) of 0.01 mg/dL, a GLC ([…], time 28 day) of 192.5 mg/dL and an IP ([…], time 28 day) of 5.7 mg/dL. It also gave a K ([…], time 28 day) of 3.9 meq/L, an LDH ([…], time 28 day) of 214 IU/L and a Na ([…], time 28 day) of 141.5 meq/L. It also gave a PL ([…], time 28 day) of 138.5 mg/dL, an RALB ([…], time 28 day) of 3.4 g/dL and a TBIL ([…], time 28 day) of 0.05 mg/dL. It also gave a TC ([…], time 28 day) of 73 mg/dL, a TG ([…], time 28 day) of 42.5 mg/dL and a TP ([…], time 28 day) of 6.5 g/dL. The gamma-GTP ([…], time 28 day) was 2 IU/L.
